Results reported in ChEMBL document CHEMBL3351565, “Cycloartane-type triterpenes from Euphorbia fischeriana stimulate human CYP3A4 promoter activity” (Bioorg Med Chem Lett, 2014).

Tests used:
Hepatocyte = test: Induction of CYP3A4 mRNA expression in human primary hepatocytes at 10 uM after 24 hrs by RT-PCR analysis
CYP3A4 = CYP3A4 (Homo sapiens, UniProt P08684); test: (§1) Induction of CYP3A4 in human HepG2 cells at 10 uM after 24 hrs by luciferase reporter gene assay in presence of hPXR relative to control; conditions: HepG2 cells with hPXR and CYP3A4 luciferase reporter
CYP3A4, sequence (P08684 whole entry): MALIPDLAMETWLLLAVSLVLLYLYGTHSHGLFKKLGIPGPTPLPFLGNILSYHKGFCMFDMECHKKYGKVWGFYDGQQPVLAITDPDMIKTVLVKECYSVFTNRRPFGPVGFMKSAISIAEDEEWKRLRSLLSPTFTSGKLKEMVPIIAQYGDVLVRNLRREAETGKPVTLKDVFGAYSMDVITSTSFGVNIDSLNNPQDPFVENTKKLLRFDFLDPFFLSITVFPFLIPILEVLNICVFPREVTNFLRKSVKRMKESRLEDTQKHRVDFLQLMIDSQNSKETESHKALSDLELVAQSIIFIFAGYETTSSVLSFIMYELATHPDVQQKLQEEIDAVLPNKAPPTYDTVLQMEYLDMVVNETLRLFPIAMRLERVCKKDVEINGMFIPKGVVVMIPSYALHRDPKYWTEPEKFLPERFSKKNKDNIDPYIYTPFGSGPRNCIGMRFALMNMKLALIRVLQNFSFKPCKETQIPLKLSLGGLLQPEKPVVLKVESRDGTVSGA

Cytochrome P450 3A4 = Cytochrome P450 3A4 (Homo sapiens, UniProt P08684); test: as §1; conditions: hepg2, 24 h, 10 µM
Cytochrome P450 3A4, sequence (P08684 whole entry): as above

Activity (Hepatocyte) | fold induction at 24 h, 10 µM (CYP3A4) | Activity (Cytochrome P450 3A4) | SMILES
Active | 4 |  | C=C(CC[C@@H](C)[C@H]1CC[C@@]2(C)[C@@H]3CC[C@H]4C(C)(C)[C@@H](O)CC[C@@]45C[C@@]35CC[C@]12C)C(C)(C)O
 |  | Not Active | CC(=O)O[C@H]1CC[C@]2(C)C3=CC=C4[C@@H]5CC(C)(C)CC[C@]5(C)CC[C@@]4(C)[C@]3(C)CC[C@H]2C1(C)C
 |  | Not Active | C=C(C)[C@@H]1CC[C@]2(C)CC[C@]3(C)[C@H](CC[C@@H]4[C@@]5(C)CC[C@@H](O)C(C)(C)[C@@H]5CC[C@]43C)[C@@H]12
 |  | Active | CC(C)C1(CC[C@@H](C)[C@H]2CC[C@@]3(C)[C@@H]4CC[C@H]5C(C)(C)[C@@H](O)CC[C@@]56C[C@@]46CC[C@]23C)CO1 (mixture of isomers)
Not Active | 9.4 |  | COC(CO)(CC[C@@H](C)[C@H]1CC[C@@]2(C)[C@@H]3CC[C@H]4C(C)(C)[C@@H](O)CC[C@@]45C[C@@]35CC[C@]12C)C(C)C (mixture of isomers)
 |  | Not Active | C=C(C)[C@@H]1CC[C@]2(C)CC[C@]3(C)[C@H](CC[C@@H]4[C@@]5(C)CC[C@H](O)C(C)(C)[C@@H]5CC[C@]43C)[C@@H]12 [LUPEOL]

SMILES | Activity (Hepatocyte) | fold induction at 24 h, 10 µM (CYP3A4) | Activity (Cytochrome P450 3A4)
CC(C)C(=O)CC[C@@H](C)[C@H]1CC[C@@]2(C)[C@@H]3CC[C@H]4C(C)(C)[C@@H](O)CC[C@@]45C[C@@]35CC[C@]12C | Active | 4 | 
CC(=O)O[C@H]1CC[C@]23C[C@]24CC[C@]2(C)[C@@H]([C@H](C)CCC(=O)C(C)C)CC[C@@]2(C)[C@@H]4CC[C@H]3C1(C)C |  |  | Not Active
